Experimental data reported in patent US20210361767A1, “RESCUING CANCER PATIENTS FROM RESISTANCE TO TREATMENT WITH INHIBITORS OF PD-1/PD-L1 INTERACTIONS” (Mayo Foundation for Medical Education and Research, priority 2018, published 2021).

B1: ADAM10: exogenous recombinant ADAM10 (protein)
chain: TTSAEKNTCQLYIQTDHLFFKYYGTREAVIAQISSHVKAIDTIYQTTDFSGIRNISFMVKRIRINTTADEKDPTNPFRFPNIGVEKFLELNSEQNHDDYCLAYVFTDRDFDDGVLGLAWVGAPSGSSGGICEKSKLYSDGKKKSLNTGIITVQNYGSHVPPKVSHITFAHEVGHNFGSPHDSGTECTPGESKNLGQKENGNYIMYARATSGDKLNNNKFSLCSIRNISQVLEKKRNNCFVESGQPICGNGMVEQGEECDCGYSDQCKDECCFDANQPEGRKCKLKPGKQCSPSQGPCCTAQCAFKSKSEKCRDDSDCAREGICNGFTALCPASDPKPNFTDCNRHTQVCINGQCAGSICEKYGLEECTCASSDGKDDKELCHVCCMKKMDPSTCASTGSVQWSRHFSGRTITLQPGSPCNDFRGYCDVFMRCRLVDADGPLARLKKAIFSPELYENIAE

How the values were obtained:
A549 cells [1] = test: sPD-L1 in supernatants of A549 cells treated with exogenous ADAM17; assay type: cell-based; conditions: exogenous ADAM17 vs PBS control, FIG. 4G
A549 cells [2] = test: PD-L1 flow cytometry of A549 cells; assay type: cell-based; conditions: vs DMSO, FIGS. 7C, 7D
Description: FIGS. 7A and 7B are flow cytometry plots and graphs showing that cell PD-L1 expression is restored by treatment with an inhibitor of ADAM10 and/or ADAM17, and is decreased by treatment with exogenous recombinant ADAM10 or ADAM17. Cells were incubated in the presence of the indicated treatments, and PD-L1 flow cytometry was performed.

[3] = test system: Dul45 prostate cancer cells; test: sPD-L1 ELISA of supernatants of Dul45 prostate cancer cells; assay type: cell-based; conditions: FIG. 4C
Description: Several tumor cell lines were treated with PBS (placebo) or with various protease inhibitors, including matrix metalloprotease inhibitors TAPI-2 and TAPI-0, aspartic protease inhibitor Pepstatin, cysteine protease inhibitor E-64, serine protease inhibitor Aprotinin, combinations of these inhibitors, and an array of other matrix metalloprotease inhibitors. Cell supernatants were queried for sPD-L1 by ELISA as published elsewhere (Frigola et la., supra). In brief, paired mouse IgG2 monoclonal antibodies against extracellular rhB7-H1 were utilized in a capture-detection plate assay using biotinylation and HRP-streptavidin detection. […] Concentrations were determined by optical density measurements along a known standard curve of rhB7-H1. Karpas-299 cells were incubated at 10 MM cells per ml in cell culture media (RPMI plus FBS plus Penicillin/Streptomycin plus buffering reagents) over 24 hours in the presence of 1 μl/100 μl DMSO or PBS (placebo), TAPI-2 at 278 μM, Pepstatin at 206.5 μM, E-64 at 185 μM, or Aprotinin at 220 μM, or a combination of the above materials at various concentrations. […] All statistical analyses were performed using R! software. Two-sided, unpaired Student t tests assessed statistical differences in experimental groups except where otherwise indicated. P values indicate comparison to vehicle control groups. P<0.05 was considered statistically significant.
Further studies were conducted using different types of cells.

CD8+ T cells [4] = test: CD8+ T cell survival with sPD-L1-rich Karpas-299 supernatant, with or without checkpoint inhibitors (trypan blue); assay type: cell-based, human; conditions: with sPD-L1-rich Karpas-299 supernatant, therapeutic doses of checkpoint inhibitor, n=3, FIG. 5B
Description: FIG. 5A is a graph plotting survival of CD8+ human T cells cocultured in the presence of PBS control or 5 μg/ml or 10 μg/ml recombinant sPD-L1. […] FIG. 5B is a graph plotting survival of CD8+ human T cells cultured in the presence of PBS control or sPD-L1-rich Karpas-299 cell line supernatant, in the presence or absence of PD1 or PD-L1 checkpoint inhibitors. Cell survival was measured by trypan blue staining. […] FIGS. 5C and 5D are a series of flow cytometry plots indicating survival of CD8+ T cells treated with various cell extracts and an anti-PD-1 antibody (nivolumab or pembrolizumab) or an anti-PD-L1 antibody (atezolizumab). FIG. 5C, CD8+ T cells isolated from healthy subjects were incubated with sPD-L1-rich supernatants from Karpas-299 cells, supernatants from Karpas-299 cells treated with inhibitor TAPI-0, supernatants from Karpas-299 cells “spiked” with TAPI-0 after isolation, and controls (top), and TMRE uptake/Annexin-V binding was measured by flow cytometry to assess the level of CD8+ T cell survival. CD8+ T cells also were incubated with supernatants from Karpas-299 cells, plus the indicated doses of anti-PD-1 and anti-PD-L1 antibodies (bottom). FIG. 5D, CD8+ T cells were incubated with PD-L1-rich supernatants from A787-0 RCC cells and the indicated concentrations of pembrolizumab. […]

CD8+ T cells [5] = test: CD8+ T cell survival with Karpas-299 supernatants, TMRE/Annexin-V flow cytometry; assay type: cell-based, human; conditions: for survival of CD8+ T cells: with Karpas-299 supernatant, FIG. 5C
Description: CD8+ T cells isolated from healthy subjects were incubated in the presence of 50% Karpas-299 supernatants of varying types and 50% fresh cell culture media. Supernatant types included sPD-L1-rich supernatants from Karpas-299 cells, supernatants from Karpas-299 cells treated with TAPI-0 to prevent sPL-L1 production, supernatants from Karpas-299 cells “spiked” with TAPI-0 after sPD-L1 production, and fresh culture media controls (FIG. 5C). Karpas-299 cell supernatants were generated by incubation at 10 MM cells/ml for 48 hours. TMRE/Annexin-V binding was measured by flow cytometry to assess the level of CD8+ T cell survival. Antibodies and reagents used for flow cytometry were Annexin-V-FITC, anti-mouse CD16/32 (BioLegend; San Diego, Calif.); anti-PD-L1, mouse isotype control (eBioScience/Thermo Fisher Scientific; Waltham, Mass.), TMRE-PE (Abcam; Cambridge, Mass.), BD Wash/Perm (Becton Dickenson; Waltham, Mass.). Flow cytometry was performed and analyzed using FlowJo (Treestar; Ashland, Oreg.).
CD8+ T cells were incubated with supernatants from Karpas-299 cells as above, plus varying doses of several anti-PD-1 antibodies.
Karpas-299 lymphoma cells producing sB7-H1 were cultured with an array of protease inhibitors. Supernatants from these cultures were isolated and analyzed for sB7H1 concentration by ELISA. Subsequently, activated human CD8+ T cells were cultured with recombinant sB7H1 protein and cell survival was measured at 24 hours. CD8+ T cells also were cultured with sB7H1-rich tumor cell line supernatants versus sB7H1-depleted supernatants over 48 hours in the presence of placebo, low dose (10 nM), or high dose (1 μM) anti-PD-1 antibody pembrolizumab, and cell survival was measured.

CD8+ T cells [6] = test: CD8+ T cell survival with A786-0 supernatant plus pembrolizumab; assay type: cell-based, human; conditions: supernatants from A786-0 RCC cells (20% A786-0 supernatant), increasing concentrations; partial rescue; FIG. 5D
Description: FIG. 5A is a graph plotting survival of CD8+ human T cells cocultured in the presence of PBS control or 5 μg/ml or 10 μg/ml recombinant sPD-L1. […] FIG. 5B is a graph plotting survival of CD8+ human T cells cultured in the presence of PBS control or sPD-L1-rich Karpas-299 cell line supernatant, in the presence or absence of PD1 or PD-L1 checkpoint inhibitors. Cell survival was measured by trypan blue staining. […] FIGS. 5C and 5D are a series of flow cytometry plots indicating survival of CD8+ T cells treated with various cell extracts and an anti-PD-1 antibody (nivolumab or pembrolizumab) or an anti-PD-L1 antibody (atezolizumab). FIG. 5C, CD8+ T cells isolated from healthy subjects were incubated with sPD-L1-rich supernatants from Karpas-299 cells, supernatants from Karpas-299 cells treated with inhibitor TAPI-0, supernatants from Karpas-299 cells “spiked” with TAPI-0 after isolation, and controls (top), and TMRE uptake/Annexin-V binding was measured by flow cytometry to assess the level of CD8+ T cell survival. CD8+ T cells also were incubated with supernatants from Karpas-299 cells, plus the indicated doses of anti-PD-1 and anti-PD-L1 antibodies (bottom). FIG. 5D, CD8+ T cells were incubated with PD-L1-rich supernatants from A787-0 RCC cells and the indicated concentrations of pembrolizumab.
In brief, A786-0 cells were incubated at 10 MM cells/ml for 48 hours. […]

[7] = antibody at 1 μM, 1 μM pembrolizumab among the most effective

Molecule	PD-L1 expression (flow cytometry) (A549 cells [2])	rescue of CD8+ T cell survival (CD8+ T cells [4])	survival of CD8+ T cells (CD8+ T cells [5]; [7])	other results
ADAM17 (TACE): commercially-obtained, recombinant form of ADAM17 (TACE)	decreased			detectable sPD-L1 secreted (A549 cells [1]): higher amounts
CCN(CC)Cc1cc(C)c(N(Cc2ccccc2)S(=O)(=O)c2ccc(OC)cc2)c(C(=O)NO)c1 [MMPI9]				sPD-L1 secretion versus controls [3]: significantly reduced
pembrolizumab: humanized anti-PD-1 antibody, trade name KEYTRUDA		did not rescue	increased the survival	sB7-H1-containing supernatant-induced CD8+ T cell death (CD8+ T cells [5]; Example 3, 48 hours, high dose (1 μM)): decreased; survival of CD8+ T cells (CD8+ T cells [5]; antibody at 10 nM): increased the survival; survival of CD8+ T cells (CD8+ T cells [6]): increased the survival
nivolumab: anti-PD-1 antibody, trade name OPDIVO		did not rescue	increased the survival	
B1	decreased			
